Results: US20010053797A1 (priority 1998, published 2001)
“Also recorded” adds a separate entry of the source. Read-outs that look alike come from different tables or passages of the source.

Legend:
[1] = test system: cortical neurons and glia; assay: Chemical hypoxia (azide) and glucose deprivation in cortical cell cultures, medium LDH; format: cell-based, Swiss Webster mice; details: for effect on azide neurotoxicity in glucose-free buffer (neuronal death): 3 mM azide 30 min with compound, LDH 21-25 h later; for effect on potentiation of azide toxicity/glucose deprivation by GSH: 3 mM azide plus 100 μM GSH plus compound; for effect on potentiation of azide toxicity/glucose deprivation by GSH / effect on potentiation of azide toxicity by mercaptoethanol: 30 min; for effect on potentiation of azide toxicity by mercaptoethanol: 3 mM azide plus 100 μM mercaptoethanol plus compound
Method: Primary cultures containing both cortical neurons and glia were prepared from gravid Swiss Webster mice as previously described. (Regan , R. F. and Choi, D. W., The effect of NMDA, AMPA/kainate, and calcium channel antagonists on traumatic cortical neuronal injury in culture, Brain Res, 633: 236-242, 1994). Plating medium consisted of Eagle's minimal essential medium (MEM), 5% equine serum, 5% fetal bovine serum, 2 mM glutamine, and 23 mM glucose. Cultures were incubated in 5% CO2 at 37° C. Two-thirds of the culture medium was exchanged twice weekly with MEM containing 10% equine serum, 2 mM glutamine, and 23 mM glucose. Glial cell division was inhibited at 4-7 days in vitro with 10^−5 M cytosine arabinoside.
Chemical hypoxia was induced with 3 mM azide, which unlike cyanide is not volatile and has little effect on copper-zinc and manganese superoxide dismutases at low millimolar concentrations. (Misra, H. P. and Fridovich, I., Inhibition of superoxide dismutases by azide, Arch Biochem Biophys 189: 317-322, 1978). Experiments were conducted at 13-16 days in vitro in a glucose-free buffer containing 116 mM NaCl, 5.4 mM KCl, 1.8 mM CaCl2, 1 mM NaH2PO4, 26.2 mM NaHCO3, 0.8 mM MgSO4, and amino acids (MEM amino acids, Sigma Chemical Co., St. Louis, Mo., U.S.A.). After incubation for 30-90 min at 37° C. in 5% CO2, cultures were washed into MEM containing 10 mM glucose and were returned to the incubator.
Cell death was estimated 21-25 h after azide exposure by inspection under phase-contrast microscopy, and was quantified by assaying lactate dehydrogenase (LDH) activity in the medium, as previously described. (Regan, R. F. and Panter, S. S., Traumatic neuronal injury in cortical cell culture is attenuated by 21-aminosteroids, Brain Res, 682: 144-150, 1995). Medium LDH in this culture system is an accurate marker of neuronal death that correlates well with cell counts. (Koh, J. Y. and Choi, D. W., Vulnerability of cultured cortical neurons to damage by excitotoxins: Differential susceptibility of neurons containing NADPH-diaphorase, J Neurosci 8: 2153-2163, 1988). […] (Koh, J. Y. and Choi, D. W., 1988). The LDH activity in the medium of sister cultures exposed to sham wash alone was subtracted from all values to obtain the LDH signal associated specifically with neurotoxin exposure.
Data were analyzed by one-way analysis of variance. Differences between groups and a single mean were assessed with the Dunnett multiple comparisons test; when groups were compared to more than one mean, the Tukey-Kramer post hoc test was used.

[2] = test system: murine cortical cell cultures (neurons), NMDA receptor; assay: NMDA neurotoxicity in murine cortical cell cultures, medium LDH; format: cell-based, Swiss Webster mice; details: for LDH release: scaled to 300 μM NMDA (=100); for effect on potentiation of NMDA neurotoxicity by mercaptoethanol: NMDA plus 1 mM mercaptoethanol plus equimolar compound; for effect on NMDA neurotoxicity (neuronal death, medium LDH): compound added with low micromolar NMDA, 20-25 h; for effect on potentiation of NMDA neurotoxicity by GSH: NMDA plus GSH plus compound
Method: Cultures were incubated in 5% CO2 at 37° C.
Experiments were conducted at 13-15 days in vitro.

[3] = test system: murine cortical cell cultures (neurons), AMPA and kainate receptors; details: listed as reduced glutathione
Method: (§1) After halothane anesthesia and cervical dislocation, cortical hemispheres were removed and incubated in 0.075% (wt/vol) acetylated trypsin (Sigma T-6763) for 1 h at 37° C. Tissue was dissociated by multiple passages through a narrow bore (flamed) Pasteur pipette, and the cell suspension was plated on confluent glial cultures at a density of 2.25-2.5 hemispheres per 24 well plate.
(§2) Experiments were conducted at 13-15 days in vitro. Cultures were exposed to excitatory amino acids in serum-free MEM containing 10 mM glucose.
Since astrocytes are not vulnerable to excitotoxic injury in this culture system (Choi D. W., Maulucci-Gedde M. and Kriegstein A. R. Glutamate neurotoxicity in cortical cell culture. J Neurosci 7: 357-368, 1987), the contribution of astrocytic LDH to the LDH signal is negligible.
Differences between groups were assessed with the Tukey-Kramer or Dunnett post hoc tests.

native NMDA receptor = biological target: T1, native NMDA receptor (Rattus norvegicus, UniProt P35439); details: cited from earlier work
T1 construct: host or cells: cultured forebrain, cortical or retinal neurons (endogenous receptor)

[4] = test system: NMDA receptor-mediated neurotoxicity; details: cited from earlier work
[5] = test system: NR1-NR2B, -NR2C, or -NR2D receptors; details: millimolar concentrations of GSH; cited from earlier work
[6] = test system: cultured cerebellar granule cells; details: cited from earlier work
GSH binding sites = details: cited from earlier work
cortical cell culture = details: low micromolar concentrations; cited from earlier work
[7] = test system: murine cortical cell cultures; details: millimolar concentrations, 20-25 h, 0 μM NMDA
Method: as §1, §2

For `O[C@H](CS)[C@H](O)CS` (racemic) [dithiothreitol], the “effect on azide neurotoxicity in glucose-free buffer (neuronal death)” value (from here on “effect … in glucose-free buffer (neuronal death)”) [1] was “concentration-toxicity profile that was similar to GSH”.

With `N[C@@H](CCC(=O)N[C@@H](CS)C(=O)NCC(=O)O)C(=O)O` [GSH, glutathione] the LDH release ([2]; 8 μM NMDA plus GSH) was 61.09±3.83%, the “effect on neuronal death at high NMDA concentration” value ([2]; 24 μM NMDA) was “not altered” and the “effect on potentiation of NMDA neurotoxicity by mercaptoethanol” value [2] was “did not further increase neuronal death; also recorded: tended to inhibit the effect of mercaptoethanol; also recorded: did not further enhance NMDA neurotoxicity”. The “effect on potentiation of NMDA neurotoxicity by mercaptoethanol” value ([2]; listed as reduced glutathione) was “did not further increase NMDA-induced neuronal death”, the “effect on NMDA neurotoxicity (neuronal death, medium LDH)” value (“effect … (neuronal death, medium LDH)” for short) [2] was “selectively potentiates NMDA neurotoxicity; also recorded: markedly potentiated; also recorded: specifically potentiated NMDA neurotoxicity; also recorded: selectively potentiate” and the “effect … (neuronal death, medium LDH)” value ([2]; listed as glutathione) was “marked potentiation”. The “effect … (neuronal death, medium LDH)” value ([2]; listed as reduced glutathione) was “markedly enhanced; also recorded: markedly enhance the vulnerability”, the “effect on neurotoxicity of kainic acid” value [3] was “unaffected” and the “effect on native NMDA receptor responses” value (native NMDA receptor) was “no effect”. For the same molecule, the “effect on NMDA neurotoxicity” value [4] was “attenuated NMDA neurotoxicity”, the “effect on responses to glutamate (whole cell currents)” value [5] was “not” and the “basal 45Ca2+ influx” value [6] was “did not alter”. The “glutamate and NMDA-induced calcium influx” value [6] was “increased”.

For `C[C@]12N[C@H](Cc3ccccc31)c1ccccc12` [MK-801], the LDH release ([2]; 8 μM NMDA plus GSH plus MK-801) was −1.24±1.58%, the “cell death due to 8 μM NMDA plus GSH” value ([2]; 8 μM NMDA plus GSH plus compound) was “completely blocked” and the “effect on potentiation of azide toxicity/glucose deprivation by GSH” value [1] was “blocked”.

For `NS(=O)(=O)c1cccc2c1c([N+](=O)[O-])cc1[nH]c(=O)c(=O)[nH]c12` [NBQX, 1,2,3,4-tetrahydro-6-nitro-2,3-dioxo-benzo[f]quinoxaline-7-sulfonamide], the “effect on potentiation of azide toxicity/glucose deprivation by GSH” value [1] was “not and no effect”.

For `CN[C@H](CC(=O)O)C(=O)O` [NMDA, N-methyl-D-aspartate], the “neuronal death by NMDA” value ([2]; 24 μM NMDA) was “widespread neuronal death” and the “neuronal death by NMDA” value ([2]; 300 μM NMDA, sister cultures (=100)) was “essentially complete neuronal death without injuring glia”.

For `CCCCCCSC[C@H](NC(=O)CC[C@H](N)C(=O)O)C(=O)NCC(=O)O` [SHG, S-hexylglutathione], the “effect on potentiation of NMDA neurotoxicity by (sulfhydryl) reducing agents” value (from here on “effect … (sulfhydryl) reducing agents”) [2] was “antagonized”, the “effect on potentiation of NMDA neurotoxicity by mercaptoethanol” value [2] was “blocked the effect of mercaptoethanol” and the “effect on potentiation of NMDA neurotoxicity by mercaptoethanol” value ([2]; listed as S-hexylglutathione) was “completely blocked”. For the same molecule, the “effect on potentiation of NMDA neurotoxicity by GSH” value [2] was “completely blocked”, the “effect on potentiation of NMDA neurotoxicity by GSH” value ([2]; listed as S-hexylglutathione) was “completely blocked; also recorded: antagonized the effect of GSH” and the “effect … (neuronal death, medium LDH)” value [2] was “no significant effect; also recorded: did not attenuate NMDA neurotoxicity per se”. The “effect … (neuronal death, medium LDH)” value ([2]; listed as S-hexylglutathione) was “inactive per se”, the “effect … (sulfhydryl) reducing agents” value ([2]; listed as S-hexylglutathione) was “blocked the potentiation” and the “effect … in glucose-free buffer (neuronal death)” value [1] was “ineffective”. For the same molecule, the “effect … in glucose-free buffer (neuronal death)” value ([1]; listed as S-hexylglutathione) was “not increased”, the “effect on potentiation of azide toxicity/glucose deprivation by GSH” value [1] was “attenuates” and the “effect on potentiation of azide toxicity by mercaptoethanol” value [1] was “attenuates”. For the same molecule, the “neuroprotection against azide plus GSH or mercaptoethanol” value (“neuroprotection” below) ([1]; compound at 1-3 mM) was “decreasing neuronal death moderately” and the “effect on glutathione binding” value (GSH binding sites; listed as S-hexylglutathione) was “displace glutathione binding; also recorded: selectively inhibited”.

In the case of `CSC[C@H](NC(=O)CC[C@H](N)C(=O)O)C(=O)NCC(=O)O` [SMG, S-methylglutathione], the “effect … (sulfhydryl) reducing agents” value [2] is reported as “blocked the potentiation”, the “effect on potentiation of NMDA neurotoxicity by GSH” value [2] is reported as “blocks the potentiation; also recorded: completely blocked; also recorded: antagonized the effect of GSH” and the “effect … (neuronal death, medium LDH)” value [2] is reported as “inactive per se”. The “effect on glutathione binding” value (GSH binding sites) was “displace glutathione binding”.

For `CCN(CC)c1ccc(N(CC)CC)c(N2CCN(CC(=O)[C@H]3[C@H](C)C[C@H]4[C@@H]5CCC6=CC(=O)C=C[C@]6(C)C5=CC[C@@]43C)CC2)n1.Cl` [U74500A], the “effect on potentiation of NMDA neurotoxicity by GSH” value [2] is listed as “GSH also potentiated injury in the presence” and the “effect on hemoglobin toxicity” value (cortical cell culture) is listed as “blocks hemoglobin toxicity”.

With `[N-]=[N+]=[N-]` [azide] the “toxicity of azide alone” value ([1]; 3 mM azide in glucose-free medium, 30 minutes) was “tolerated by most neurons”.

In the case of `N[C@@H](CS)C(=O)O` [cysteine], the “effect on glutathione binding” value (GSH binding sites) is listed as “selectively inhibited”.

In the case of `N[C@@H](CCC(=O)O)C(=O)O` [glutamate], the “effect on glutathione binding” value (GSH binding sites) is listed as “not”.

With oxidized glutathione [GSSG] the “effect … (sulfhydryl) reducing agents” value [2] was “antagonized”, the “effect on potentiation of NMDA neurotoxicity by mercaptoethanol” value [2] was “completely blocked; also recorded: blocked the effect of mercaptoethanol” and the “effect on potentiation of NMDA neurotoxicity by mercaptoethanol” value ([2]; listed as oxidized glutathione) was “blocked”. For the same molecule, the “effect … (neuronal death, medium LDH)” value [2] was “no significant effect; also recorded: did not attenuate NMDA neurotoxicity per se”, the “effect … in glucose-free buffer (neuronal death)” value [1] was “ineffective; also recorded: not increased” and the “effect on potentiation of azide toxicity/glucose deprivation by GSH” value [1] was “most neurons have survived; also recorded: attenuates”. For the same molecule, the “effect on potentiation of azide toxicity by mercaptoethanol” value [1] was “attenuates”, the “effect on neuronal death induced by prolonged azide exposure” value ([1]; azide 60-90 min in the absence of GSH) was “no significant effect” and the “neuroprotection” value ([1]; compound at 1-3 mM) was “robust effect”. The “neuroprotection” value ([1]; equimolar compound (100 μM)) was “weak and somewhat variable neuroprotection”, the “toxicity of compound alone” value [7] was “nontoxic” and the “effect on native NMDA receptor responses” value (native NMDA receptor) was “inhibitory”. For the same molecule, the “effect on NMDA neurotoxicity” value [4] was “attenuated NMDA neurotoxicity”.

B1: catalase: catalase, added at a concentration sufficient to inhibit the neurotoxicity of the pro-oxidant hemoglobin (protein, UniProt P00432 2-527, looked up)
Catalase: ADNRDPASDQMKHWKEQRAAQKPDVLTTGGGNPVGDKLNSLTVGPRGPLLVQDVVFTDEMAHFDRERIPERVVHAKGAGAFGYFEVTHDITRYSKAKVFEHIGKRTPIAVRFSTVAGESGSADTVRDPRGFAVKFYTEDGNWDLVGNNTPIFFIRDALLFPSFIHSQKRNPQTHLKDPDMVWDFWSLRPESLHQVSFLFSDRGIPDGHRHMNGYGSHTFKLVNANGEAVYCKFHYKTDQGIKNLSVEDAARLAHEDPDYGLRDLFNAIATGNYPSWTLYIQVMTFSEAEIFPFNPFDLTKVWPHGDYPLIPVGKLVLNRNPVNYFAEVEQLAFDPSNMPPGIEPSPDKMLQGRLFAYPDTHRHRLGPNYLQIPVNCPYRARVANYQRDGPMCMMDNQGGAPNYYPNSFSAPEHQPSALEHRTHFSGDVQRFNSANDDNVTQVRTFYLKVLNEEQRKRLCENIAGHLKDAQLFIQKKAVKNFSDVHPEYGSRIQALLDKYNEEKPKNAVHTYVQHGSHLSAREKANL
For B1, the “effect on potentiation of NMDA neurotoxicity by GSH” value [2] was “No effect was observed”.
